# Assay results from patent US20140274682A1, “COMPOSITIONS AND METHODS FOR REDUCING DUST AND REPELLING, CONTROLLING, OR DIRECTING AN INSECT” (priority 2013, published 2014).
# Columns and labels:
# honeybees = experiment: Honeybee repulsion experiment at feeding stations; format: in vivo; details: 2% by weight with 50% sucrose solution in feeder
# Procedure: FIG. 5 describes the feeding station arrangement (A and B) for the honeybee repulsion experiments described herein. As set forth in […], panel (A) sets forth the bee cage positions on the left portion of panel (A) with the randomized feeding station positions on the right portion of panel (A). Panel (B) sets forth an alignment of the randomized feeding station positions with a distance of two meters between feeding stations. A total of eight feeding stations were evaluated at a ten meter distance in front of the respective bee hives. The feeding stations were placed two meters apart from one another.
# Honeybees were trained to deep feeders (eight positions), each containing a 50% sucrose solution for one day. After the honeybees were trained to each feeder, the 50% sucrose feeder at randomized positions 1-8 was replaced with a shallow feeder containing a combination of repelling compounds and a 50% sucrose solution according to Table 9. In accordance with FIGS. 5 and 6, 2% by weight of Camphor oil (T4), Ajowan oil (T5), Camphor powder (T6), Rosemary oil (T7), and 2-Decanone (T8) in combination with a 50% sucrose treatment were added to feeders on day two.
# Table 9 describes active agents evaluated for bee repulsion and their randomized feeding station positions. As described in […], T1 (control), T2 (control), T3 (control), T4 (Camphor oil), T5 (Ajowan oil), T6 (Camphor powder), T7 (Rosemary oil), and T8 (2-Decanone).
# FIG. 5 evaluates the number of bees visiting a respective feed station over a time interval. FIG. 6 sets forth the mean number of honeybees visiting feeding station over a period of four hours.
# [1] = Stability test of Poncho 600 with Eugenol, clothianidin content by HPLC; format: physicochemical; details: in Poncho combined with Eugenol; up to 54° C. for seven days
# Procedure: Table 10 describes a stability test with a combination of Eugenol and Poncho evaluated at room temperature, 40° C., and 54° C. at zero time, 3 days, and 7 days as confirmed by high performance liquid chromatography (HPLC).
# [2] = Stability test of Poncho 600 with α-terpineol, clothianidin content by HPLC; format: physicochemical; details: in Poncho combined with α-terpineol; up to 54° C. for eight days
# Procedure: Table 11 describes a stability test with a combination of α-terpineol and Poncho 600 evaluated at room temperature, 40° C., and 54° C. at zero time, 2 days, and 8 days as confirmed by HPLC.
SMILES,Repellency to honeybees at 24 hours (honeybees),Repellency to honeybees at 24 hours (honeybees; listed as 2-decanone),Repellency to honeybees over the 4 hour assessment period (honeybees; full 4 hour assessment period),Chemical stability of clothianidin content [1],Chemical stability of clothianidin content [2]
"CCCCCCCCC(C)=O [Compound 2-Decanone, 2-decanone (methyl-n-octyl ketone)]",exhibited repellency,still repellent,highly repellent,,
CN/C(=N\[N+](=O)[O-])NCc1cnc(Cl)s1 [clothianidin],,,,exhibited chemical stability,exhibited chemical stability
